SMILES strings stand for the structures.

The target in the test is T1, FLuc-C-HiBiT (Photinus pyralis, UniProt P08659).
T1 construct: firefly luciferase with C-terminal HiBiT tag, E. coli expressed
T1 sequence (P08659 whole entry, looked up): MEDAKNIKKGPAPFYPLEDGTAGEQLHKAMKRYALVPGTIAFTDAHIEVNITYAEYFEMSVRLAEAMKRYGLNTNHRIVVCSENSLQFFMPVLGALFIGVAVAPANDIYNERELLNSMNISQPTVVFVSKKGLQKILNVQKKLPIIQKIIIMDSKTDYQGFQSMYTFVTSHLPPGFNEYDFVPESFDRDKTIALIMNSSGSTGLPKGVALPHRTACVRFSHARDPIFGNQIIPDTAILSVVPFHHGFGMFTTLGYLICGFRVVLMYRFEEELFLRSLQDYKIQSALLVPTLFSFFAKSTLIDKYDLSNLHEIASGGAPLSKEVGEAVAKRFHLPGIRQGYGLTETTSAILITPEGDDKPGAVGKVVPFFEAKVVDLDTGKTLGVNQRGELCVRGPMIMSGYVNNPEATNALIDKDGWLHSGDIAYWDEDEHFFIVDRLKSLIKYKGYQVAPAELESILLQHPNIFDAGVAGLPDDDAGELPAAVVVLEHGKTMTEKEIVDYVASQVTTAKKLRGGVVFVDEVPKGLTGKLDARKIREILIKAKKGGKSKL
The test can be described thus: biochemical. The note with it: enzyme activity, 10 uM ATP; read-out: IC50 or SDR50 (mM) / FLuc E.
Turning to `O=C(NCCc1ccccc1Cl)c1ccc2c(c1)nc1n2CCOC1` [NCGC00133432-01], the IC50 amounted to 0.007 mM.

As to `C=C1[C@H](CO)[C@@H](O)C[C@@H]1n1cnc2c(=O)[nH]c(N)nc21` [NCGC00164563-11], the IC50 was over 0.03 mM. `Cc1ccc(CN2CCc3nc(C(=O)Nc4ccccc4)oc3CC2)cc1` [NCGC00413255-01]: the IC50 was determined as 0.0161 mM. Consider `CC(Cn1cccn1)Nc1ccc(-c2nc(-c3ccccc3F)no2)cn1` (stereo not drawn) [NCGC00427483-01], for which the IC50 amounted to 0.00989 mM. As to `COCCNc1cc(-c2ccc3ccccc3n2)c2cc[nH]c2n1` [NCGC00440476-01], the IC50 is 0.0124 mM. With `CC(C)n1cc2cc(C(=O)Nc3ccc4c(c3)OCCO4)sc2c1` [NCGC00470606-01] the figure was 0.00989 mM. With `COc1cccc(C(=O)NCCn2ccn3nc(-c4ccc(C)c(C)c4)cc3c2=O)c1OC` [NCGC00457018-01] the figure was 0.00785 mM; with `COCCN1CCC2(C1)CN(C)c1ccc(C(=O)Nc3ccc(F)cc3)cc12` (stereo not drawn) [NCGC00419287-01], 0.00718 mM; with `COCCN1CCC2(C1)CN(C)c1ccc(C(=O)Nc3ccn(C)n3)cc12` (stereo not drawn) [NCGC00419376-01], 0.0101 mM. In the case of `Cc1nc(CN2CCOc3c(O)cc(-c4nc5ccccc5s4)cc3C2)no1` [NCGC00430265-01], the IC50 was over 0.03 mM. With `Cc1ccc2nc(-c3ccc(NC(=O)Cc4ccccc4)cc3)sc2c1` [NCGC00098885-01] the figure was 0.00989 mM; with `Cc1cccc(-n2ncc3c(N4CCCCCC4)ncnc32)c1` [NCGC00139171-01], 0.000881 mM. With `Cc1ccc(-c2nnc(SCc3ccccc3C)o2)cc1` [NCGC00103155-01] the figure was 0.0111 mM. With `O=C(Nc1ccccc1)N1CCc2nc(C3CC3)nc(-c3ccc(Cl)cc3)c2C1` [NCGC00480419-01], the IC50 is over 0.03 mM.

As to `CCn1cnnc1CC1CCN(C(=O)c2cc(-c3ccc(C)c(C)c3)nc3ccccc23)CC1` [NCGC00456253-01], the IC50 was 0.00279 mM.

Turning to `CC(C)Oc1cccc(-c2cccc(COc3cnc4c(ccn4CC(=O)O)c3)c2)c1` [NCGC00418183-01], the IC50 was 0.018 mM. With `CCOC(=O)C1CCCN(c2ncnc3c2cnn3-c2ccc(C)c(Cl)c2)C1` (stereo not drawn) [NCGC00139179-01] the figure was over 0.03 mM; with `Cc1ccc(C2Cn3nnc(C(=O)N4CCC(C(=O)Nc5ccccc5)CC4)c3CO2)cc1` (stereo not drawn) [NCGC00449585-01], 0.0111 mM; with `Cc1ccc(-n2nc(C)c([C@@H]3C=C[C@@H](NC(=O)Nc4ccc(Cl)cc4)C3)c2C)cc1Cl` [NCGC00400070-01], 0.00989 mM.

With `Fc1cccc(-c2cnc(Nc3ccc(N4CCOCC4)cc3)c3c2CCO3)c1` [NCGC00412721-01], the IC50 was 0.0161 mM. In the case of `COc1ccccc1C(=O)NCCn1ccn2nc(-c3ccc(C)cc3C)cc2c1=O` [NCGC00456987-01], the IC50 came to 0.00989 mM.

For the compound `COc1ccc(OCC(=O)Nc2cc(-c3nc4ccccc4s3)ccc2C)cc1` [NCGC00098594-01], the IC50 came to 0.0124 mM. Regarding `CCOc1ccc(-c2cn3nc(CC(C)C)sc3n2)cc1` [NCGC00117462-01], the IC50 came out at 0.00495 mM. With `CN(CCc1ccccn1)c1ccc(-c2nc(COc3ccccc3)no2)cn1` [NCGC00426301-01] the figure was 0.0111 mM. With `O=C(Nc1ccccc1C(=O)O)c1cccc([S+](=O)([O-])N2CCCC2)c1` [NCGC00098464-01] the figure was 0.0124 mM; with `COc1cc(C(=O)NC2CCCN(c3cc(-c4ccc(F)cc4)n[nH]3)C2)cc(OC)c1OC` (stereo not drawn) [NCGC00437480-01], 0.0111 mM. `Cc1ccc2oc(=O)c(-c3nc(-c4cccs4)no3)cc2c1` [NCGC00123382-01]: the IC50 was over 0.03 mM. With `CCOC(=O)c1ccc(NC(=O)c2nsc3ccccc23)cc1` [NCGC00113675-01] the figure was 0.00351 mM; with `Cc1ccc2nc(-c3ccc(NC(=O)COc4c(C)ccc(C)c4C)cc3)sc2c1` [NCGC00099580-01], 0.0111 mM; with `COc1ccc(-c2nc3ccc(N[S+](C)(=O)[O-])cc3o2)cc1` [NCGC00119094-01], 0.00556 mM. With `CNC(=O)c1cccc(-c2cnc(NC(=O)c3ccncc3)c3c2CCO3)c1` [NCGC00412795-01] the figure was 0.0202 mM; with `COCCNC(=O)[C@@H](C)C1CC[C@@]2(C)Cc3sc(CSc4ccccc4)nc3[C@@H](C)[C@@H]2[C@H]1O` (stereo partly drawn) [NCGC00391430-01], 0.0111 mM; with `O=C(Cc1cccc(Cl)c1)N1CCn2c(nnc2-c2ccccc2)C1` [NCGC00479548-01], 0.0157 mM.

On to `O=C(NC1CCCN(c2cc(-c3ccc(F)cc3)n[nH]2)C1)c1ccc2ncccc2c1` (stereo not drawn) [NCGC00437580-01], for which the IC50 came to 0.00881 mM. `COc1ccc(CC(=O)Nc2ccc(-c3nc4ccccc4s3)c(C)c2)cc1OC` [NCGC00137832-01]: the IC50 was over 0.03 mM. With `COc1ccccc1CN1CCc2nc(C(=O)Nc3ccccc3)oc2CC1` [NCGC00413298-01] the figure was 0.0161 mM.

Take `COc1cccc(CC(=O)Nc2ccc(-c3nc4ccccc4s3)cc2Cl)c1` [NCGC00137806-01]: the IC50 is over 0.03 mM. With `COc1ccc(OCC(=O)Nc2cccc(-c3nc4ccccc4s3)c2C)cc1` [NCGC00118972-01] the figure was 0.00785 mM; with `Nc1ncnc2c1ncn2[C@@H]1O[C@H](CO)[C@@H](O)[C@@H]1O` [NCGC00178869-10], over 0.03 mM. Turning to `Oc1cc(-c2nc3ccccc3s2)cc2c1OCCN(Cc1cccn1-c1ncccn1)C2` [NCGC00239686-01], the IC50 was over 0.03 mM.

On to `Cc1cc(C)cc(C(=O)NCCn2ccn3nc(-c4ccc(C)cc4C)cc3c2=O)c1` [NCGC00456988-01], for which the IC50 is 0.007 mM.

As for `CSCC(=O)Nc1nn(-c2ccc(F)cc2)c2cccc(N3CCOCC3)c12` [NCGC00439780-01], the IC50 was found to be 0.00989 mM. With `CN1CCNc2cc(Nc3ccc(F)cc3)ncc2C1` [NCGC00411261-01] the figure was 0.0202 mM; with `CCOP(=O)(Cc1ccc(-c2nc3ccccc3s2)cc1)OCC` [NCGC00538319-01], 0.0111 mM. With `O[C@H]1C[C@@H](c2cc(N3CCc4c(Cl)cccc4C3)ncn2)C1` [NCGC00424922-01] the figure was 0.00989 mM. For `CN(CCO)c1ccc(-c2nc(CCCc3ccccc3)no2)cn1` [NCGC00438483-01], the IC50 worked out at 0.0124 mM. With `CCc1cccc(-n2nnc(-c3nsc(NC(=O)c4cccs4)n3)c2C)c1` [NCGC00129048-01] the figure was over 0.03 mM. `COc1ccc(N2CCN(C(=O)c3noc(-c4ccc(C)cc4)n3)CC2)cc1` [NCGC00447127-01]: the IC50 turned out to be 0.00989 mM.

`COc1ccc2cc(C3CN(C(=O)c4cccc(CO)c4)CCO3)ccc2c1` (stereo not drawn) [NCGC00430133-01]: the IC50 was 0.00248 mM. With `COc1ccc(-c2nc3ccccc3s2)cc1NC(=O)c1cc(OC)c(OC)c(OC)c1` [NCGC00102099-01] the figure was 0.00157 mM; with `CCOCC1(C)COc2ccc(C(=O)Nc3ccc(Cl)cc3)cc2N1` (stereo not drawn) [NCGC00416138-01], 0.018 mM. With `CCOc1cccc2cc(-c3nc4ccc(C(=O)O)cc4[nH]3)c(=O)oc12` [NCGC00138160-01] the figure was 0.000157 mM. With `O=C(Nc1ccc2c(c1)OCCO2)c1cccn(Cc2ccccc2)c1=O` [NCGC00137349-01] the figure was 0.0111 mM; with `COc1cccc(-c2cc3c(=O)n(CCNC(=O)C4CCN(C(C)=O)CC4)ccn3n2)c1` [NCGC00457070-01], 0.0124 mM.

Consider `CCOc1cc(C(=O)Nc2ccc(-c3nc4ccccc4s3)cc2Cl)cc(OCC)c1OCC` [NCGC00137812-01], for which the IC50 was determined as 0.0124 mM. With `CCCOc1cccc(C(=O)Nc2ccc(-c3nc4ccccc4s3)c(Cl)c2)c1` [NCGC00102006-02] the figure was 0.0157 mM. In the case of `Cc1cnc(CC2CCCN(C(=O)CCc3c[nH]c4ccccc34)C2)n1C(C)C` (stereo not drawn) [NCGC00469687-01], the IC50 was over 0.03 mM. With `COc1cccc(-c2cn3ncsc3n2)c1` [NCGC00117781-01] the figure was 0.0111 mM; with `O=C(N[C@H]1CCN2C(=O)c3cc(/C=C/c4ccc(O)cc4)ccc3NC(=O)[C@H]12)c1cnccn1` [NCGC00421527-01], over 0.03 mM; with `FC(F)(F)c1cc(-c2nc3ccccc3s2)cc(C(F)(F)F)c1` [NCGC00167627-01], 0.0124 mM. With `Cc1ccc(-n2nc(C)c([C@@H]3C=C[C@@H](NC(=O)COCC(=O)O)C3)c2C)cc1Cl` [NCGC00401616-01] the figure was over 0.03 mM; with `O=C(N1c2ccccc2CC1c1noc(C2CCOCC2)n1)C1(c2ccccc2)CC1` (stereo not drawn) [NCGC00471505-01], 0.0124 mM; with `Cc1n[nH]c2c1C(c1ccc(Cl)cc1)C(C#N)=C(N)O2` (stereo not drawn) [NCGC00027933-02], over 0.03 mM.

With `Cc1ccc(Cl)cc1NC(=O)c1cc(-c2ccc3c(c2)OCCO3)on1` [NCGC00118917-01], the IC50 was 0.00176 mM. In the case of `Cc1ccc2nc(-c3ccc4nc(-c5ccc(NC(=O)c6cccc(Cl)c6)cc5)sc4c3)sc2c1[S+](=O)([O-])O` [NCGC00386846-01], the IC50 amounted to 0.00442 mM. With `Clc1ccc2c(c1)-n1cc(-c3ccccc3)nc1CO2` [NCGC00164952-01] the figure was over 0.03 mM; with `CSc1cccc(NC(=O)c2ccc3c(c2)N(C)C2CCCN2C3=O)c1` (stereo not drawn) [NCGC00452155-01], 0.0111 mM; with `CC(=O)N1CCNc2cc(-c3ccccc3F)ncc2C1` [NCGC00411070-01], 0.0285 mM.

Turning to `COc1cccc(-c2ncc3c(n2)OCCN(Cc2ccccc2)C3=O)c1` [NCGC00413619-01], the IC50 came to 0.0128 mM.

Take `Cc1ccc(C(=O)NCCn2cccc2-c2nc(-c3ccc4c(c3)OCO4)no2)cn1` [NCGC00445612-01]: the IC50 was 0.0111 mM. With `CCc1ccc(C(=O)Nc2ccc3c(N4CCOCC4)ncnc3c2)cc1` [NCGC00425539-01] the figure was 0.00785 mM. `Cc1ccc(-n2ncc3c(N4CCCC(C)C4)ncnc32)c(C)c1` (stereo not drawn) [NCGC00081401-03]: the IC50 was determined as 0.0111 mM.

Turning to `Cc1ccc(NC(=O)c2ccc3snnc3c2)cc1C` [NCGC00114783-01], the IC50 turned out to be 0.00881 mM. With `c1cncc(Nc2cc3c(cn2)CN(Cc2cc[nH]n2)CCN3)c1` [NCGC00411048-01] the figure was 0.018 mM; with `Cc1cccc(NC(=O)Nc2ccc(F)cc2)n1` [NCGC00106833-01], 0.0124 mM.

For the origin of these results see article PMC12064818, “A general assay platform to study protein pharmacology using ligand-dependent structural dynamics” (Nature Communications, 2025).
